These results are taken from patent US7008941B2, “Reverse-turn mimetics and methods relating thereto” (Myriad Genetics, Inc., priority 2001, dated 2006).

The target in one assay is T1, α4β1 integrin (Homo sapiens, UniProt P05556+P13612).
T1 construct: Harvested Ramos cells; endogenous in cells; host or cells: Ramos cells
In words: Antagonism of binding of CS1 peptide to α4β1 integrin (calcein-labelled Ramos cell adhesion to biotinylated CS1 plate). It counts as cell-based. The note with it: Ramos cells. Here is the method:
In brief, 100 μL/well of a solution of biotinylated CS1 peptide (1 mg/100 mL of phosphate buffered saline (PBS)) was incubated in a NeutrAvidin plate (Pierce) for 1 h at room temperature. The plate was then washed 3× with distilled water and treated with 200 μL of blocking buffer (3% BSA in PBS) for at least 4 h. Blocked plates were washed as above. Harvested Ramos cells (10^7/mL) were resuspended in PBS containing 10 μL of calcein AM/mL and incubated 30 min in the dark. This suspension was diluted with 45 mL PBS and the cells harvested by centrifugation and aspiration. The cells were resuspended in binding buffer (˜5×10^5/mL). If cell lysis was to be monitored ethidium homodimer was added to the buffer to a final concentration of 5 μM. A solution (10 μL) of compound to be tested or control peptide was added to appropriate wells followed by 90 μL of the cell suspension. The plate was incubated at 37° C. for 1 h. […] Otherwise, the plate was washed 3×, 50 μL of lysis buffer was added to each well, the plate rocked in the dark for 10 min, and the fluorescence monitored at 485 nm excitation and 535 nm emission.

Another assay addresses neurokinin-1 receptor (Homo sapiens, UniProt P25103). In words: Tachykinin antagonism assay: inhibition of Substance P-induced calcium mobilization (FLIPR) in U373 MG cells. It counts as cell-based. The settings on record: Substance P 1 nM. How it is done:
An assay measuring the ability of compounds 1–50 to antagonize binding of substance P peptide to its receptor neurokinin-1 was performed. Substance P is known to act upon cells via the mobilization of calcium (Bordey et al., Glia 11: 277–283, 1994). The compounds were assessed for their ability to inhibit the action of Substance P with the use of a Fluorescent Imaging Plate Reader (FLIPR) from Molecular Devices (Shroeder et al., J. Biomol. Screening 1: 75–80, 1996; U.S. Pat. No. 5,112,134; U.S. Pat. No. 4,968,148). […] This dye is similar to Fluo-3, Fluo-4, and Calcium Green dyes used by other researchers (Lin et al., Biotechniques 26: 318–326, 1999) in that it increases in fluorescence in the presence of calcium; the Molecular Devices version is preferable because the cells need not be washed following staining with the dye. […] Substance P was added in Hank's salt solution with 1% BSA to give a final concentration of 1 nM and the resultant change in fluorescence intensity was monitored for thirty seconds with an excitation wavelength of 480 nm and an emission of 515 nm. Some wells were maintained as controls which were not incubated with any compound, and the peak fluorescence readings resulting from the wells which received compounds were compared to these control wells in order to determine the degree of inhibition.

T1 sequence (P13612 34-1032): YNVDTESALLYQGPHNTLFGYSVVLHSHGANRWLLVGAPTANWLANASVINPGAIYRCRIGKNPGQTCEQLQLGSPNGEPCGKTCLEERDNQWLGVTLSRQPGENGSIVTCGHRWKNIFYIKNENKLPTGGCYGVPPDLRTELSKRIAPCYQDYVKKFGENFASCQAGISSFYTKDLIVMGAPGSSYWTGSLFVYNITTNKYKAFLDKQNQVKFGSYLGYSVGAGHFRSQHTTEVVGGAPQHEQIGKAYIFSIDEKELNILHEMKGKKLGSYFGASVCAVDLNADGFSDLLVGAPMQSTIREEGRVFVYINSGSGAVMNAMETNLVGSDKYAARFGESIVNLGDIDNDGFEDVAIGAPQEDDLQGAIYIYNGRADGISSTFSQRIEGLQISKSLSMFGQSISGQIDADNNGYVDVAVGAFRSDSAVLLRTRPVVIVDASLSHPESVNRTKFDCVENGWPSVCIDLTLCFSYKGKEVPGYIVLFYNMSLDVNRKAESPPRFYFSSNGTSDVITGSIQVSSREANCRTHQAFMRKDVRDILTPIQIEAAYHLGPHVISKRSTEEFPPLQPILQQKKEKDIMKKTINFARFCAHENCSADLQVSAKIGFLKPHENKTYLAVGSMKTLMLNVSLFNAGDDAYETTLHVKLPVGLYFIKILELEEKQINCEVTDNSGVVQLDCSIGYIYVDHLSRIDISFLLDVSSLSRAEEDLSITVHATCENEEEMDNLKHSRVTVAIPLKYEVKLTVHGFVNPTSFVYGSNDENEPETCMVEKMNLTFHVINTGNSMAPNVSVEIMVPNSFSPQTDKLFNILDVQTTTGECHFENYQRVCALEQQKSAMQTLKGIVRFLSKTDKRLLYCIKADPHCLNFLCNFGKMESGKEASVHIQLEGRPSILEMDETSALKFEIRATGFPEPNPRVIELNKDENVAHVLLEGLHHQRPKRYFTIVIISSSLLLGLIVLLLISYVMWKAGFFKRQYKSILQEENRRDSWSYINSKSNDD
T1 sequence (P05556 21-798): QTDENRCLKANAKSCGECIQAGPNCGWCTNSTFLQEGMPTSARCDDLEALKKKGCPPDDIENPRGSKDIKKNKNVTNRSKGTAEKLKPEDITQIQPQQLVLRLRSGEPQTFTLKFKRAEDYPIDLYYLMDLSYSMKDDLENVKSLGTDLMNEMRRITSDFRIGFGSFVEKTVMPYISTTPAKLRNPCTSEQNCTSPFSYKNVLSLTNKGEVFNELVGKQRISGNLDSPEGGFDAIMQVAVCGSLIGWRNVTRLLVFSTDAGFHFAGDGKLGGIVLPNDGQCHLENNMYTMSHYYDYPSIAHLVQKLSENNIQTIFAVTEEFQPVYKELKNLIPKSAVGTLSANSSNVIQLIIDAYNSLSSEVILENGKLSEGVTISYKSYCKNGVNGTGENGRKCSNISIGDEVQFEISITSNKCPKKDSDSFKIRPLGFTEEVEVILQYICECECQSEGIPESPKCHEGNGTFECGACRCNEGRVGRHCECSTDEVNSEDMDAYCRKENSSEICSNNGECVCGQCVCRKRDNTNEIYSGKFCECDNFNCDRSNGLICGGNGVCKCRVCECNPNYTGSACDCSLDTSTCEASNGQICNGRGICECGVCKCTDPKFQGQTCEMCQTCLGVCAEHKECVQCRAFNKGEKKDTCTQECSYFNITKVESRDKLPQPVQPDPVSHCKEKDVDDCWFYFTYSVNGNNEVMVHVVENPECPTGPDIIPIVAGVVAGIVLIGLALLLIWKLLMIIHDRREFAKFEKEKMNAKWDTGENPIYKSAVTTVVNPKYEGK
neurokinin-1 receptor, sequence (P25103 whole entry): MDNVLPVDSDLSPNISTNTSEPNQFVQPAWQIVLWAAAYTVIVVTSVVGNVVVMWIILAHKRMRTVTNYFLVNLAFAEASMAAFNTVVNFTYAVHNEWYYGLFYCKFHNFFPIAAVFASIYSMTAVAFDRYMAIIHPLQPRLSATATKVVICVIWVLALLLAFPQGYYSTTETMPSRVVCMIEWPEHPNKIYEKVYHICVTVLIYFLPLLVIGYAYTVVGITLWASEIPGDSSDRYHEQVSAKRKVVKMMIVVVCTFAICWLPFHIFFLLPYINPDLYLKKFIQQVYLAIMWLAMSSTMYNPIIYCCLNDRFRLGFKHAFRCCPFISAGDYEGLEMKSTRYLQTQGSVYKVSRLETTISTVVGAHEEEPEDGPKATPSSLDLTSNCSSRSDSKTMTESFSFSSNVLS

For the molecule `O=C1C[C@H](Cc2ccccc2)N2C(=O)[C@H](Cc3ccc(O)cc3)N(CC3CCCCC3)C(=O)C2O1` (stereo partly drawn) [Compound 47], the inhibition at 100 µM on α4β1 integrin is above 50%.
With `CC12OC(=O)[C@H](Cc3ccccc3)N1C(=O)[C@H]1CCCN1C2=O` (stereo partly drawn) [Compound 45], the inhibition at 20 µM on neurokinin-1 receptor was above 25%. Further, the inhibition at 100 µM at α4β1 integrin is above 50%.

As usually defined, the inhibition is how much of the control response was suppressed.
